This note sets out measurements from patent US20220218614A1, “IONIZABLE CATIONIC LIPIDS AND LIPID NANOPARTICLES, AND METHODS OF SYNTHESIS AND USE THEREOF” (Tidal Therapeutics, Inc., priority 2020, published 2022).

Data set [1] can be described thus: Hydrodynamic diameter and polydispersity of LNPs by dynamic light scattering (DLS), Zetasizer. Type of data set: physicochemical. The method, then: (§1) Samples of the LNPs produced in Example 2 were characterized to determine the average hydrodynamic diameter, zeta potential, and mRNA content (total and dye-accessible). The hydrodynamic diameter was determined by dynamic light scattering (DLS) using a Zetasizer model ZEN3600 (Malvern Pananalytical, UK). The zeta potential was measured in 5 mM pH 5.5 MES buffer and 5 mM pH 7.4 HEPES buffer by laser Doppler electrophoresis using the Zetasizer.

Data set [2] is described as follows: Zeta potential of LNPs by laser Doppler electrophoresis in 5 mM pH 5.5 MES and 5 mM pH 7.4 HEPES buffer. The class given is physicochemical. As to conditions: pH 5.5 MES and pH 7.4 HEPES buffer. How it is done:
as §1

The nature of data set [3]: Quant-iT RiboGreen RNA assay: dye accessible and total (Triton) mRNA content, encapsulation. The class given is physicochemical. The method, then:
RNA content of the nanoparticles is measured using Thermo Fisher Quant-iT RiboGreen RNA Assay Kit. Dye accessible RNA, which includes both non-incorporated RNA and RNA that is near the surface of the nanoparticle, is measured by diluting the nanoparticles to approximately 1 μg/mL mRNA using HEPES buffered saline, and then adding Quant-iT reagent to the mixture. Total RNA content is measured by diluting the particles to 1 μg/mL mRNA using HEPES buffered saline, disrupting the nanoparticles by heating them to 60° C. for 30 minutes in HEPES buffered saline containing 0.5% Triton, and then adding Quant-It reagent. RNA is quantified by measuring fluorescence at 485/535 nm, and concentration is determined relative to a contemporaneously run RNA standard curve.

The subject of data set [4] is primary human T-cells (CD3+ T cells). As to the kind of experiment: In vitro LNP transfection of primary human T-cells (GFP, Cy5 or DiI, viability by FACS). Type of data set: cell-based. An excerpt:
This example describes the protocol used for in vitro LNP transfections in primary human T-cells. This method is used to assess LNP in vitro efficacy in relevant target cells (CD3+ T cells) by first transfecting the cells using LNPs loaded with mRNA encoding for a reporter gene, such as GFP mRNA, and then assessing transfection by measuring reporter gene expression by fluorescence-[…] cell sorting (FACS). Additionally, particle association with cells may be observed by in the same assay by labeling individual nanoparticle components, such as the mRNA, with a fluorescent dye, such as Cy5, and then observing cell/dye association by FACS.
CD3+ T cells were isolated from frozen peripheral blood mononuclear cells using an EasySep Human T Cell Isolation Kit on a RoboSep automated cell isolation system from […]. T cells were plated into a flat bottom 96-well plate in RPMI cell culture media supplemented with glutamax, 10% fetal bovine serum, and 40 ng/mL IL2. 100 μL of cell suspension was seeded per well at a density of 1M T cells/mL (100K T cells/well). Cells were allowed to rest for two hours in a 37° C. incubator, and then were transfected by gently adding 10 μL of a 22 μg/mL (by mRNA) nanoparticle suspension, resulting in a final mRNA concentration of 2 μg/mL. Cells were gently mixed with a pipette and then incubated for 24 hours in a 37° C. incubator. After incubation the cells were analyzed using an ThermoFisher Attune NXT flow cytometer. Cy5 was detected using a 638 nm laser with 670/14 nm filter. eGFP was detected using a 488 nm laser and a 530/30 nm filter. Data were analyzed using FlowJo software from BD biosciences. FACS data were first gated to exclude doublets and dead cells and then gated for GFP and Cy5. Gates for GFP+ and Cy5+were set such that a control sample (PBS treated T cells) was <0.1% positive.
CD3+ T cells were isolated from frozen peripheral blood mononuclear cells using an EasySep Human T Cell Isolation Kit on a RoboSep automated cell isolation system from […]. T cells were plated into a round bottom 96-well plate in RPMI cell culture media supplemented with glutamax, 10% fetal bovine serum, pen-strep, and 40 ng/mL IL-2. 100 μL of cell suspension was seeded per well at a density of 1M T cells/mL (100K T cells/well). Cells were allowed to rest for two hours in a 37° C. incubator, and then were transfected by gently adding 10 μL of a 22 μg/mL (by mRNA) nanoparticle suspension, resulting in a final mRNA concentration of 2 μg/mL (unless otherwise noted). Cells were gently mixed with a pipette and then incubated for 24 hours in a 37° C. incubator. After incubation the cells were diluted with FACS buffer (BD 554657) and analyzed using a BD Fortessa flow cytometer. Data were analyzed using FlowJo software from BD biosciences.

Data set [5] concerns human T cells in PBMC-engrafted NSG mice. As to the kind of experiment: In vivo reprogramming of immune cells with DiI LNP expressing GFP in PBMC-humanized NSG mice. Also noted: species or system mouse. As to conditions: 24 h. The method, then: The NSG (NOD.Cg-Prkdcscid Il2rgtmlWjl/SzJ) mouse model was purchased from Jax Laboratories. 6-8 weeks old male mice were engrafted with 10 million PBMC of qualified donor in sterile PBS by tail vein injection. Individual body weight was monitored twice a week and blood samples were collected at appropriate interval to evaluate human immune cells engraftment.
50 μl blood was collected by tail vein bleed from each mouse. Red blood cells were lysed using Versalyse, RBC lysis solution following protocol as instructed by manufacturer (Beckman Coulter A09777). Cells were stained with hCD45 & hCD3 to determine the engraftment of human T-cells. After 15 days of PBMC injection, mice had anywhere from 30-60% huCD45+. These humanized mice were evaluated for reprogramming of immune cells by LNPs expressing DiI dye and GFP.
At time zero, mice (n=4 per group) were injected with GFP expressing DiI LNPs (by i. v. at 0.3 mg/kg or 0.1 mg/kg with appropriate buffer. At each time point, 24 or 48h depending on the example mice treated with either LNPs or buffer were sacrificed. Terminal blood and tissues collection was performed to determine DiI and GFP expression in different organs and immune cells as below.
At above specified timepoints, mice were anesthetized with CO2 before sample collection. For blood collection, the chest was opened to expose the heart. […]

Where [6] appears, read: Table 10: Lipid 5 and Lipid 7 LNP, theoretical total mRNA 50 μg/mL.

Entries after “also recorded” stand apart in the source; their conditions may differ.

On to `CCCCC/C=C\C/C=C\CCCCCCCC(=O)OC[C@H](CCN(C)C)OC(=O)CCCCCCC/C=C\C/C=C\CCCCC` [Lipid 5], for which the “polydispersity after antibody conjugate insertion” value in data set [1] is under 0.15. Besides, in data set [1] (insertion of anti-CD3 hSP34-PEG2k-DSPE conjugate), the “change in particle size and PDI upon conjugate insertion” value was “larger change in hydrodynamic diameter (relative to Lipid 7 LNP); also recorded: larger change in hydrodynamic diameter (relative to Lipid 8 LNP)”. Further, the “LNP surface charge (zeta potential), in words” value in data set [2] is “positive zeta potential at pH 5.5, and either near neutral or slightly negative charge at pH 7.4”. Moreover, the “% Dye Accessible mRNA” value in data set [3] (Table 10: Lipid 5 and Lipid 7 LNP) was found to be 23%. Moreover, the “Measured total (Triton method) mRNA” value in data set [3] (setting [6]) amounted to 43 µg/mL; in data set [3] (Table 11A: Lipid 5, Lipid 8 and DLn-MC3-DMA LNP, vortexer mixing, theoretical total mRNA 42.5 ug/mL), 27 µg/mL. The “Ribogreen Dye Accessible mRNA” value in data set [3] (setting [6]) stood at 10 µg/mL; in data set [3] (Table 11A: vortexer mixing, theoretical total mRNA 42.5 ug/mL), 4 µg/mL. The “GFP MFI, fold relative to DLn-MC3-DMA” value in data set [4] (0.5 ug/mL and 1.0 ug/mL dose/well) is over 5 fold. Also, the T-cell viability in data set [4] (all three dose levels (0.125, 0.5 and 2 ug mRNA/mL per well), PBS control about 50%) is given as 40-45%. Besides, the “GFP protein expression (% GFP+ cells, GFP MFI), in words” value in data set [4] (hSP34 targeted LNP with GFP mRNA, 24 hours) is “Dose dependent expression of GFP protein; also recorded: greater overall protein expression at all three mRNA dose levels; also recorded: outperformed both Lipid 8 and DLn-MC3-DMA”. In addition, the “LNP association with cells (% Cy5+/Cy5 MFI or % DiI+/DiI MFI), in words” value in data set [4] (hSP34 targeted LNP, 24 hours) is “equally associated with cells”. For the same compound, the “T-cell viability / tolerability, in words” value in data set [4] (hSP34 targeted LNP, 24 hours, dose as in the value) was “well tolerated by T-cells at and below 0.5 μg/mL dose; also recorded: consistently better tolerated by T-cells; also recorded: well tolerated by T-cells at and below 1.0 μg/mL dose; also recorded: better tolerated at higher doses; also recorded: least toxic at 1 ug/mL dose”. Further, the “GFP expression of T cells in blood and lung” value in data set [5] (0.1 mg/kg, CD3 (hsp34) targeted LNP, DPG-PEG-1.5%) was “about 25%”. For the same compound, the “in vivo reprogramming (GFP, DiI) of T cells, in words” value in data set [5] (0.3 mg/kg (0.1 mg/kg in Example 30)) is recorded as “superior for reprogramming T cells”.
